“Also recorded” adds a separate entry of the source. Square brackets hold non-standard residues; d marks the D form. Ends that are not written are not given here.
Each substance was assayed on 52b3 anti-dsDNA monoclonal antibody (assay: ELISA binding of monoclonal antibody 52b3 to phage clones). Settings: 52b3 selected phage, Table 3.
Parameters: species or system mouse
Description: (§1) FIG. 1 is comprised of FIGS. 1A, 1B and 1C, and depicts the binding by Enzyme Linked ImmunoSorbent Assay of monoclonal antibodies R4A (FIG. 1A), 95 (FIG. 1B) and 52b3 (FIG. 1C) to phage clones. In each figure, the shaded columns are R4A-selected phage and unshaded columns are 52b3-selected phage.
(§2) Binding of antibodies to phage was determined by Enzyme-Linked ImmunoSorbent Assay (ELISA). Microtiter plates (Becton Dickinson, Lincoln Park, N.J.) were coated with 50 μl of antibody (1 μg/ml unless otherwise specified) in TBS (Tris/10 mM HCl pH 7.5, 150 mM NaCl) overnight at 4° C. Plates were washed 3 times with TBS/0.05% TWEEN® 20. Approximately 2.5×10^10 purified phage in 50 μl TBS were added to each well, incubated for 2 hours at 37° C., washed, and then were blocked with 150 μl of TBS/2% BSA for 1 hour at 37° C. Plates were incubated with 50 μl of a 1:4000 dilution in TBS of biotinylated sheep antibody to M13 phage (5′->3′, Inc., Boulder, Colo.) for 1 hour at 37° C. Plates were washed again and incubated with a 1:4000 dilution of […] streptavidin (Southern Biotech. Assoc. Inc., Birmingham, Ala.) and developed with Sigma-104 substrate tablets (Sigma Chemical Co.). Optical density was read at 405 nm.

First: C G V D G R W P R W (CGVDGRWPRW; displayed on phage; peptide (1)..(10) randomly-selected sequence obtained by biopanning a decapeptide library with 52b3) [φB23]
Second: D G E W P R E G W S (DGEWPREGWS; displayed on phage; peptide (1)..(10) randomly-selected sequence obtained by biopanning a decapeptide library with 52b3) [φB56]
The “Binding O.D. 405 nm” value of the first is lower: 1.5 for the first, 1.6 for the second.

“E D L E G E W P M R (EDLEGEWPMR; displayed on phage; peptide (1)..(10) randomly-selected sequence obtained by biopanning a decapeptide library with 52b3) [φB22]” and “L L D D G F W P R V (LLDDGFWPRV; displayed on phage; peptide (1)..(10) randomly-selected sequence obtained by biopanning a decapeptide library with 52b3) [φB25]” are the same in “Binding O.D. 405 nm” value: 1.5 for the first, 1.5 for the second.

Going from “R H E D G D W P R V (RHEDGDWPRV; not fully specified (N-terminus, C-terminus)) [φB11]” to “S C Y Q S Y P G E C (SCYQSYPGEC; displayed on phage; peptide (1)..(10) randomly-selected sequence obtained by biopanning a decapeptide library with 52b3) [φB52]”, the “Binding O.D. 405 nm” value rises from 1.4 to 1.8.

Compared with “S L D E L D W D S M (SLDELDWDSM; displayed on phage; peptide (1)..(10) randomly-selected sequence obtained by biopanning a decapeptide library with 52b3) [φB1]”, “S L I S D E W P R W (SLISDEWPRW; displayed on phage; peptide (1)..(10) randomly-selected sequence obtained by biopanning a decapeptide library with 52b3) [φB24]” is lower in “Binding O.D. 405 nm” value: 1.4 for the first, 1.3 for the second.

First: T W C P V W I W D C (TWCPVWIWDC; displayed on phage; peptide (1)..(10) randomly-selected sequence obtained by biopanning a decapeptide library with 52b3) [φB16]
Second: V L I C W D G C E T (VLICWDGCET; displayed on phage; peptide (1)..(10) randomly-selected sequence obtained by biopanning a decapeptide library with 52b3) [φB17]
The “Binding O.D. 405 nm” value of the first is lower: 1.0 for the first, 1.6 for the second.

In the case of “W D C Y V C R L E L (WDCYVCRLEL; displayed on phage; peptide (1)..(10) randomly-selected sequence obtained by biopanning a decapeptide library with 52b3) [φB21]”, the “Binding O.D. 405 nm” value is reported as 1.2.

Each substance was assayed on R4A binding to dsDNA (assay: Peptide inhibition of R4A binding to dsDNA by ELISA). Settings: fluid phase inhibitor, FIG. 3, FIG. 4.
Parameters: species or system mouse
Description: FIG. 3 depicts peptide inhibition of R4A (1 μg/ml) binding to calf thymus double stranded DNA by Enzyme Linked ImmunoSorbent Assay.
FIG. 4 sets forth a graph representing DWEYS (L and D peptides) (SEQ ID NO:2) inhibition of R4A binding to dsDNA. IMMULON® II plates were coated overnight with 100 μg/ml salmon sperm dsDNA. R4A at a final concentration of 5 μg/ml was incubated at varying concentrations of L or D DWEYS (SEQ ID NO:2) and transferred to the plate precoated with dsDNA. After a 2-hr incubation at 37° C., the plates were washed, and alkaline phosphotase-linked goat anti-mouse IgG2b antibody was added for 1 hour at 37° C. OD after addition of substrate was monitored at 405 nm.

With “DWEYS [D peptide DWEYS] (Ac-[dD][dW][dE][dY][dS]-NH2; SMILES CC(=O)N[C@H](CC(=O)O)C(=O)N[C@H](Cc1c[nH]c2ccccc12)C(=O)N[C@H](CCC(=O)O)C(=O)N[C@H](Cc1ccc(O)cc1)C(=O)N[C@H](CO)C(N)=O) [R4A-specific peptide DWEYS made from D amino acids]” the “Inhibition of R4A binding to dsDNA” value was “inhibited the binding of R4A to dsDNA”.
In the case of “DWEYS [L peptide DWEYS, R4A-specific L peptide DWEYS]”, the “Inhibition of R4A binding to dsDNA” value is reported as “showed greater maximal inhibition; also recorded: inhibited the binding of R4A to dsDNA; also recorded: inhibited dsDNA better than the D peptide in vitro”.
DWEYSVWLSN [R4A specific peptide] was tested, and the “Inhibition of R4A binding to dsDNA” value was “inhibited dsDNA binding by the appropriate antibody only”.

These substances were tested against phage clone φ3-3, no insert (UniProt P03661) (assay: phage ELISA, antibody coated, no-insert control phage added, anti-M13 detection). Settings: not given.
UniProt P03661, sequence (P03661 19-424 limits assumed): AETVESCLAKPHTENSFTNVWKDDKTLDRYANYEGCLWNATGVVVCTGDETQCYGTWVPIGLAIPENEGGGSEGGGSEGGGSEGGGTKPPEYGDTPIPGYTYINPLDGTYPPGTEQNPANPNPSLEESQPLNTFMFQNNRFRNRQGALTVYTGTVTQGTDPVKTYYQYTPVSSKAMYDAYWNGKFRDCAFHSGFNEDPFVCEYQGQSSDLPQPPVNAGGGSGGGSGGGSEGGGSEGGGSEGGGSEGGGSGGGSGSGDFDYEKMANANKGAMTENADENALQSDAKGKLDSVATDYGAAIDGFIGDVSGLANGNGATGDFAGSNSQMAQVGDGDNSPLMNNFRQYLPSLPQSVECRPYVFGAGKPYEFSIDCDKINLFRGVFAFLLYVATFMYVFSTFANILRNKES

Substance “monoclonal antibody R4A (mouse anti-dsDNA antibody)” has a Binding O.D. 405 nm of 0.1 O.D. 405 nm.

The substances below were run on 52b3 binding to dsDNA (assay: Peptide inhibition of 52b3 binding to dsDNA by ELISA). Settings: fluid phase peptide, FIG. 3.
Parameters: species or system mouse
Description: To determine whether peptide and dsDNA bound within the same antigen binding site of each antibody, inhibition assays were performed with specific peptides. […] These were used in fluid phase to inhibit the binding of antibody to dsDNA. Two peptides, Asp-Trp-Glu-Tyr-Ser-Val-Trp-Leu-Ser-Asn (SEQ ID NO:1) and Asp-Trp-Glu-Tyr-Ser (SEQ ID NO:2), were chosen as the R4A specific epitope; the 52b3 specific peptide was Arg-His-Glu-Asp-Gly-Asp-Trp-Pro-Arg-Val (SEQ ID NO:7).

For RHEDGDWPRV [52b3 specific peptide], the “Inhibition of 52b3 binding to dsDNA” value was “inhibited dsDNA binding by the appropriate antibody only”.

What follows are substances tested on R4A anti-dsDNA monoclonal antibody (assay: ELISA binding of monoclonal antibody R4A to phage clones). Settings: R4A selected phage, Table 2.
Parameters: species or system mouse
Description: as §1, §2

Compared with “D W D Y G A L M W A (DWDYGALMWA; displayed on phage; peptide (1)..(10) randomly-selected sequence obtained by biopanning a decapeptide library with R4A) [φ7-3]”, “D W E Y S V W L S N (DWEYSVWLSN; not fully specified (N-terminus, C-terminus)) [φ1-3]” is higher in “Binding O.D. 405 nm” value: 1.1 for the first, 1.3 for the second.

Going from F S D C Y H S G C P [φ1-1] to “L Y F E D Y R C E L (LYFEDYRCEL; displayed on phage; peptide (1)..(10) randomly-selected sequence obtained by biopanning a decapeptide library with R4A) [φ7-6]”, the “Binding O.D. 405 nm” value falls from 1.5 to 1.2.

First: S T E H S E A D L W (STEHSEADLW; displayed on phage; peptide (1)..(10) randomly-selected sequence obtained by biopanning a decapeptide library with R4A) [φ1-2]
Second: V P V C D W E L N C (VPVCDWELNC; displayed on phage; peptide (1)..(10) randomly-selected sequence obtained by biopanning a decapeptide library with R4A) [φ7-26]
The “Binding O.D. 405 nm” value of the first is higher: 0.7 for the first, 0.4 for the second.

Compared with “W C E A D Y G R C P (WCEADYGRCP; displayed on phage; peptide (1)..(10) randomly-selected sequence obtained by biopanning a decapeptide library with R4A) [φ7-21]”, “Y S D W D Y S E G L (YSDWDYSEGL; displayed on phage; peptide (1)..(10) randomly-selected sequence obtained by biopanning a decapeptide library with R4A) [φ1-10]” is lower in “Binding O.D. 405 nm” value: 1.3 for the first, 1.1 for the second.

Each substance was assayed on R4A deposition in glomeruli (assay: Assay of anti-dsDNA antibody (R4A) glomerular deposition in SCID mice). Settings: 75 μg R4A and 150 μg peptide i.p., IgG immunostaining, FIG. 5.
Assay type: in vivo
Description: FIG. 5 sets forth kidney sections exemplifying peptide inhibition of R4A deposition in glomeruli. R4A (75 μg) and peptide (150 μg) were injected i.p. into SCID mice. Mice were killed 16 hours later, and the kidneys immunostained for IgG deposition. […] FIG. 5B sets forth a representative section from a mouse injected with R4A, and the R4A- specific D peptide DWEYS (SEQ ID NO:2).
Glomerular deposition of the nephritogenic R4A antibody was examined by injecting purified antibody into SCID mice. R4A was obtained from cell culture supernatants or from ascites of mice injected with the cell line. Antibody was purified on a protein G column (Gamma Bind, Pharmacia). SCID mice were obtained from the breeding colony maintained at the Albert Einstein College of Medicine. Six- to eight-week old female mice were used in the experiments. Anti-dsDNA antibodies and IgG2b levels were undetectable in these mice before injection. Individual mice were simultaneously injected i.p. with 75 μg of purified R4A and 150 μg of the appropriate peptide. The mice were killed 16 hours after the injection of antibody.
One kidney from each animal was fixed in 10% formalin and embedded in paraffin. […]

For “DWEYS [D peptide DWEYS] (Ac-[dD][dW][dE][dY][dS]-NH2; SMILES CC(=O)N[C@H](CC(=O)O)C(=O)N[C@H](Cc1c[nH]c2ccccc12)C(=O)N[C@H](CCC(=O)O)C(=O)N[C@H](Cc1ccc(O)cc1)C(=O)N[C@H](CO)C(N)=O) [R4A-specific peptide DWEYS made from D amino acids]”, the “Inhibition of R4A deposition in glomeruli / kidney” value was “markedly inhibited the deposition of R4A in the kidney; also recorded: only the D peptide conferred renal protection in vivo”.
“DWEYS [L peptide DWEYS, R4A-specific L peptide DWEYS]” was tested, and the “Inhibition of R4A deposition in glomeruli / kidney” value was “More anti-dsDNA antibody is present in glomeruli; also recorded: did not”.
